Assay results as given in PubChem BioAssay AID1418 (Emory University Molecular Libraries Screening Center, 2008).
pIC50: −log10 of the molar value. Active and inactive are the calls of the source. How the calls were made is not given here.

biological target: Induced myeloid leukemia cell differentiation protein Mcl-1 (Homo sapiens) (UniProt Q07820); assay: blockers of Bid binding to Mcl-1 – biochemical, TR-FRET, dose response (AID 1418); conditions: Mcl-1/Bid peptide binding, TR-FRET (europium/Dy647), 2 hr
Sequence (Q07820 whole entry, looked up): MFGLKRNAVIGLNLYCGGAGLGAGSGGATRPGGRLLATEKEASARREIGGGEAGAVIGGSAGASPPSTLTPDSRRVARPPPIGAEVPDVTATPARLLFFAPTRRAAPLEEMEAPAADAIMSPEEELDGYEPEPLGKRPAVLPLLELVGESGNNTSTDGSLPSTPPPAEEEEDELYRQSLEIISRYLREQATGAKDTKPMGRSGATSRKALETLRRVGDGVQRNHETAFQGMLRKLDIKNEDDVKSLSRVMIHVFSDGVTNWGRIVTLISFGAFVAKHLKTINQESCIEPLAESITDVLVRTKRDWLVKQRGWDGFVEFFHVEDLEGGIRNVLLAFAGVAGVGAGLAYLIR

Structure (SMILES) | IC50 | pIC50
Cc1ccc2nc(N3CC(=O)Nc4ccccc43)nc(-c3ccccc3)c2c1 | > 54 µM (inactive) | –
O=c1oc2c(O)c(O)cc3c(=O)oc4c(O)c(O)cc1c4c23 | – | 6.24
CN(NC(=O)COc1ccccc1)c1ccccc1 | > 54 µM (inactive) | –
COc1ccc(-c2ccc(C#N)c(SCC(=O)Nc3sc4c(c3C#N)CCC4)n2)cc1OC | – | 6.17
O=C(CSc1nnc2scc(-c3ccccc3)n12)N1CCN(Cc2ccccc2)CC1 | > 54 µM (inactive) | –
O=[N+]([O-])C(=c1ccc2c(c1)N1C3=C(CCCC3)CC3CCCCC31N=2)[N+](=O)[O-] (configuration not stated) | – | 6.14
CC(=O)c1ccc(NC(=O)C(C)n2c3ccccc3c3nc(=O)cc(C)n32)cc1 (configuration not stated) | > 54 µM (inactive) | –
CCN1C(=O)/C(=C/c2cccs2)SC1=Nc1ccc(OC)cc1 | > 54 µM (inactive) | –
CC(=O)c1ccc(Oc2ccc(C(C)=O)cc2)cc1 | > 54 µM (inactive) | –
O=C(NC(=S)Nc1ccc2c(c1)OCCO2)c1ccccc1F | > 54 µM (inactive) | –
COc1ccc(C(=O)C2CCCN(Cc3cn[nH]c3-c3ccc(F)cc3)C2)cc1OC (configuration not stated) | > 54 µM (inactive) | –
O=C(O)CCCN1C(=O)/C(=C\c2ccc(-c3nc4ccccc4s3)o2)SC1=S | – | 6.28
COCCn1cc(C(=O)N2CCC(C)CC2)c2c3ccccc3n(C)c2c1=O | inactive | –
O=C(O)Cn1cnc2c(=S)nc[nH]c21 | > 54 µM (inactive) | –
CCn1c(SCC(=O)NCc2ccco2)nnc1-c1ccc(N)cc1 | > 54 µM (inactive) | –
Cc1nc(CSc2nc3[nH]ncc3c(=O)n2-c2ccccc2)cs1 | > 54 µM (inactive) | –
O=C(Nc1ccc(-c2nc3ccc(NC(=O)c4cccs4)cc3[nH]2)cc1)c1cccs1 | – | 6.10
Cn1c(SCC(=O)N=Nc2c(O)[nH]c3ccccc23)nc2ccccc21 | > 54 µM (inactive) | –
CCCCCCCCCCCCCCCC[n+]1cccc2ccccc21 | – | 5.18
COc1ccccc1N1CCN(CC(=O)c2c(C)[nH]c3ccccc23)CC1 | > 54 µM (inactive) | –
CCCCOc1ccc(CC2C(=O)N(C)C(=O)N(C)C2=O)cc1 | > 54 µM (inactive) | –
O=C(O)[C@H](Cc1ccccc1)N1Cc2ccccc2C1=O | – | 4.65
O=C(c1cccc(Cl)c1)N1CCN(Cc2ccccc2F)CC1 | > 54 µM (inactive) | –
CC(C)NC(=O)C1CCCN(S(=O)(=O)c2ccc(-n3cnnn3)cc2)C1 (configuration not stated) | > 54 µM (inactive) | –
CC(=O)Nc1ccc(S(=O)(=O)NCc2ccccn2)cc1 | > 54 µM (inactive) | –

Structure (SMILES) | IC50 | pIC50
Nc1nc(SCc2ccc([N+](=O)[O-])cc2)nc2nc3c(cc12)CCCC3 | > 54 µM (inactive) | –
COc1ccc(C(C)=O)cc1COc1ccc(Cl)cc1Cl | > 54 µM (inactive) | –
C=CCNCCCOc1ccc(Cl)cc1Br | > 54 µM (inactive) | –
CCOc1cc(N2CCOCC2)c(OCC)cc1NC(=O)c1cc(-c2ccco2)nc2ccccc12 | – | 4.90
COc1cccc(CN(C(=O)/C=C/c2ccc(Cl)cc2)C2CCS(=O)(=O)C2)c1 (configuration not stated) | > 54 µM (inactive) | –
OCC1CCCN(c2nc(CN3CCCCC3)nc3scc(-c4ccccc4)c23)C1 (configuration not stated) | > 54 µM (inactive) | –
COc1cc(/C=C2/SC(=S)NC2=O)ccc1OS(=O)(=O)c1ccc(C)cc1 | – | 5.00
O=S(=O)(NCc1ccccc1)c1cccc(S(=O)(=O)N2CCOCC2)c1 | > 54 µM (inactive) | –
COc1ccc(C(=O)Nc2nc3cc(OC)c(OC)cc3c(=O)[nH]2)cc1 | > 54 µM (inactive) | –
CC1(C)Cc2cccc(OCC(=O)OCC(=O)Nc3cccc(S(N)(=O)=O)c3)c2O1 | > 54 µM (inactive) | –
Cc1ccc(NC(=O)Cn2c(O)c(N=NC(=O)c3cc4ccccc4cc3O)c3ccccc32)cc1 | – | 5.18
O=C(N/N=C/c1ccc(F)cc1)c1cc(-c2ccco2)nc2ccccc12 | – | 5.48
O=c1[nH]c(-c2ccccc2Cl)nc2c1sc(=S)n2-c1ccccc1 | > 54 µM (inactive) | –
O=S(=O)(Nc1cccc(-c2cn3ccsc3n2)c1)c1ccc(F)cc1 | > 54 µM (inactive) | –
COCCN1C(=O)C(=O)/C(=C(/O)c2ccc(S(=O)(=O)N3CCOCC3)cc2)C1c1cccc(Cl)c1 (configuration not stated) | > 54 µM (inactive) | –
O=C(O)CCc1nn2c3ccccc3n(CC(=O)c3ccccc3)c2nc1=O | > 54 µM (inactive) | –
COCCn1c(SCC(=O)NC(=O)NCc2ccccc2)nc2ccccc21 | > 54 µM (inactive) | –
O=C(Cc1c(F)cccc1Cl)Nc1ccon1 | > 54 µM (inactive) | –
O=C(/C=C/N1CCOCC1)c1cc2ccccc2o1 | > 54 µM (inactive) | –
CCCC(=O)Nc1ccc2oc(-c3cccnc3)nc2c1 | > 54 µM (inactive) | –
O=C(O)CC(NC(=O)COc1ccc(Cl)cc1Cl)C(=O)O (configuration not stated) | > 54 µM (inactive) | –
CC(/C=C1\SC(=S)N(CCCC(=O)Nc2ccc(C(=O)O)c(O)c2)C1=O)=C\c1ccccc1 | – | 5.46
Cc1ccc2cccc(Oc3ncnc4scc(-c5ccc(Cl)cc5)c34)c2n1 | > 54 µM (inactive) | –
CC1(c2cccc3ccccc23)NC(=O)N(CC(=O)NC2CCS(=O)(=O)C2)C1=O (configuration not stated) | > 54 µM (inactive) | –
O=c1oc2ccccc2n1CCn1c2ccccc2c2nc3ccccc3nc21 | – | 5.09

Structure (SMILES) | IC50 | pIC50
c1ccc2[nH]c(CN3CCOCC3)nc2c1 | > 54 µM (inactive) | –
C=CCOc1c(OC)cc(/C=N/Nc2cccc(C(=O)O)c2)c(Br)c1Br | – | 4.74
O=C(CSc1nnc(-c2ccncc2)o1)NCc1ccccc1Cl | > 54 µM (inactive) | –
C=C(C)Cn1c(Sc2nnc(C)s2)nc2c1c(=O)[nH]c(=O)n2C | > 54 µM (inactive) | –
O=C(N=Nc1c(O)[nH]c2ccc(Br)cc12)c1cc(-c2cccs2)nc2ccccc12 | – | 6.27
N#Cc1cccc(NC(=O)CSc2ccc3c4c(cccc24)C(=O)c2ccccc2-3)c1 | – | 5.58
O=C(O)CCC(=O)NCCC1=c2ccccc2=N/C1=C\c1c(O)n(Cc2ccc(F)cc2)c(=S)[nH]c1=O | – | 5.60
Nc1cccc(C(=O)OCC(=O)Nc2cccc3c2C(=O)c2ccccc2C3=O)c1 | – | 5.62
Cc1ccc(S(=O)(=O)N2CN3CCN(C3)C2)cc1 | > 54 µM (inactive) | –
CCOC(=O)c1c(C)oc2c1c(C(c1cccnc1)N1CCOCC1)c(O)c1ccccc12 (configuration not stated) | – | 6.07
O=C1NC(=O)N(c2ccc(F)cc2)C(=O)/C1=C/c1ccc2c(c1)CCCN2Cc1ccccc1 | – | 6.10
S=C(NCc1ccc(Cl)cc1)NC1CCN(Cc2ccccc2)CC1 | > 54 µM (inactive) | –
O=C(O)C[C@@H]1C(=O)O[C@@H]2C(COC(=O)c3cc(O)c(O)c(O)c3)O[C@@H](OC(=O)c3cc(O)c(O)c(O)c3)[C@@H](OC(=O)c3cc(O)c(O)c4c3[C@H]1[C@H](O)C(=O)O4)[C@H]2OC(=O)c1cc(O)c(O)c(O)c1 (some centres not stated) | – | 6.02
O=C(CSc1nc2c(cnn2-c2ccc(F)cc2)c(=O)[nH]1)N1CCCc2ccccc21 | > 54 µM (inactive) | –
COc1ccccc1C1C2=C(N=c3s/c(=C/c4cccc(OCC(=O)O)c4)c(=O)n31)c1ccccc1CC2 (configuration not stated) | – | 4.95
O=C(CCN1C(=O)/C(=C/c2cccc(Br)c2)SC1=S)NNC(=O)c1cccnc1 | – | 5.34
COc1ccc(/C=N/NS(=O)(=O)c2ccccc2)cc1OC(=O)c1ccc(C)cc1 | > 54 µM (inactive) | –
O=C(Nc1ccc(F)cc1)N1CCCN(c2ccc(C(F)(F)F)cn2)CC1 | > 54 µM (inactive) | –
O=C1OC(c2ccccc2)=C/C1=C/N1CCCCC1 | > 54 µM (inactive) | –
Cc1ccc(CSc2nnc(SCC(=O)N/N=C/c3c[nH]c4ccccc34)s2)cc1 | – | 6.28
Clc1ccc(OCCCNCc2ccccc2)c(Br)c1 | > 54 µM (inactive) | –
COc1ccc(N/C=C2\C(=O)CCc3c2oc2cc(Cl)c(O)c(Cl)c32)cc1 | – | 6.10
COc1ccc2c(c1)c(=O)oc1cc3oc(C)c(C)c3cc12 | – | 4.77
O=C(CCC(=O)c1ccc(Oc2ccccc2)cc1)Nc1cccc(Cl)c1 | > 54 µM (inactive) | –
C#CCOCCOCCOCCNc1nc(N2CCN(C(=O)[C@H](CCC(=O)O)n3cc(C(N)CC(C)C)nn3)CC2)nc(N2CCN(C(=O)[C@H](CCC(=O)O)n3cc(C(N)CC(C)C)nn3)CC2)n1 (some centres not stated) | – | 4.82

Structure (SMILES) | IC50 | pIC50
COC(=O)c1ccc(CNC(=O)c2c3c(nc4ccccc24)CCN(Cc2ccccc2)C3)cc1 | > 54 µM (inactive) | –
Cc1cc(NC2C3CC4CC(C3)CC2C4)n2nnnc2n1 (configuration not stated) | > 54 µM (inactive) | –
COC(=O)c1ccc2nc(Nc3nc4ccc(F)cc4s3)sc2c1 | – | 6.31
O=C(O)c1cccc(-n2cccc2/C=C2/NC(=O)N(c3ccc(Cl)cc3)C2=O)c1 | – | 6.28
Cc1ccc(-c2nn(C)c(=O)c3ccccc23)cc1CNC(=O)Cn1nc(-c2ccccc2)c2ccccc2c1=O | – | 6.25
CC1CN(C(=O)c2cccc(C(=O)N3CC(C)OC(C)C3)c2)CC(C)O1 (configuration not stated) | > 54 µM (inactive) | –
O=C1Nc2ccc(Br)cc2/C1=C/C(=O)c1ccc2c(c1)OCO2 | – | 5.71
O=C(COC(=O)c1ccc2ccccc2c1)NCCCc1ccccc1 | > 54 µM (inactive) | –
COc1ccc(-c2csc(/C(C#N)=C\c3ccc(O)c([N+](=O)[O-])c3)n2)cc1OC | > 54 µM (inactive) | –
CC(C(=O)O)n1nc2ccccc2n1 (configuration not stated) | > 54 µM (inactive) | –
Cc1ccc2[nH]c(=O)c(-c3nc4cc(C)ccn4c3NCc3ccco3)cc2c1 | – | 4.90
Cc1sc(NC(=O)c2sc3nc4c(C)cccc4cc3c2N)c(C#N)c1C | – | 6.02
Cc1cccc(N(CC(=O)Nc2c(C)n(C)n(-c3ccccc3)c2=O)S(C)(=O)=O)c1 | > 54 µM (inactive) | –
NC(=O)c1cccn1-c1ncc(C(F)(F)F)cc1Cl | > 54 µM (inactive) | –
CC1CCCN(C(=S)Nc2ccc3nc4n(c(=O)c3c2)CCCCC4)C1 (configuration not stated) | > 54 µM (inactive) | –
N#Cc1nc(COc2ccc(F)cc2)oc1N1CCN(Cc2ccccc2)CC1 | > 54 µM (inactive) | –
O=C(/C=C/N1CCOCC1)c1coc2ccccc12 | > 54 µM (inactive) | –
Cc1ccc(-c2noc(-c3ccccc3C(=O)N3CCN(C)CC3)n2)cc1 | > 54 µM (inactive) | –
O=C(CNc1ccc2ccccc2c1)N/N=C/c1ccc([N+](=O)[O-])o1 | > 54 µM (inactive) | –
Cc1nnc(Sc2c(N)n(C)c(=O)[nH]c2=O)s1 | > 54 µM (inactive) | –
CN1C(=O)/C(=C/c2ccccc2OCc2cccc(F)c2)NC1=S | > 54 µM (inactive) | –
Cc1ccc2nc(-c3ccc(SCC(=O)Nc4nnc(C)s4)nc3)[nH]c2c1 | – | 5.07
